Results reported in PMC11855827, “High-Throughput Screening of Five Compound Libraries for Anthelmintic Activity and Toxicity Leads to the Discovery of Two Flavonoid Compounds” (International Journal of Molecular Sciences, 2025).
Values joined by “and” are separate entries in the source; they are usually repeats but may differ in a detail not shown here. Equal entries are not always repeated. Where two headings read alike, the source gives them in different places.

System: C. elegans
[1] = Table S2, C. elegans SS assay, 110 μM, 0 h, averages of 4 data points
[2] = Table S2, C. elegans SS assay, 110 μM, 24 h, averages of 4 data points

| Structure (SMILES) | Percentage of motility inhibition 0 h [1] | Percentage of motility inhibition 24 h [2] | Percentage of motility inhibition 0 h (110 µM) [%] | Percentage of motility inhibition 24 h (110 µM) [%] |
| --- | --- | --- | --- | --- |
| CC(C)=CCC[C@@](C)(O)[C@H]1CC[C@]2(C)[C@@H]1[C@H](O)C[C@@H]1[C@@]3(C)CC[C@H](O[C@@H]4O[C@H](CO)[C@@H](O)[C@H](O)[C@H]4O)C(C)(C)[C@@H]3CC[C@]12C [20(R)-Ginsenoside Rh2] | 11% | 6% | – | – |
| CC(C)=CCC[C@@](C)(O)[C@H]1CC[C@]2(C)[C@@H]1[C@H](O)C[C@@H]1[C@@]3(C)CC[C@H](O)C(C)(C)[C@@H]3[C@@H](O)C[C@]12C [20(R)-Protopanaxatriol] | 0% | 21% | – | – |
| CC(C)=CCC[C@](C)(O)[C@H]1CC[C@]2(C)[C@@H]1[C@H](O)C[C@@H]1[C@@]3(C)CC[C@H](O[C@@H]4O[C@H](CO)[C@@H](O)[C@H](O)[C@H]4O[C@@H]4O[C@H](CO)[C@@H](O)[C@H](O)[C@H]4O)C(C)(C)[C@@H]3CC[C@]12C [20(S)-Ginsenoside Rg3] | 0% | 0% | – | – |
| CC1=C[C@@H]2C(=O)[C@]3(C=C(C)[C@H](O)[C@@]3(O)[C@@H]1O)[C@H](C)C[C@@H]1[C@H]2C1(C)C [20-Deoxyingenol] | 0% | 21% | – | – |
| C=C(C)[C@@H]1CC[C@]2(C(=O)O)CC[C@]3(C)[C@H](CC[C@@H]4[C@@]5(C)CC[C@H](O)[C@@](C)(CO)[C@@H]5CC[C@]43C)[C@@H]12 [23-Hydroxybetulinic acid] | 13% | 5% | – | – |
| CC(=O)O[C@@H]1C[C@@]23C[C@@]24CC[C@H](O[C@@H]2OC[C@@H](O)[C@H](O)[C@H]2O)C(C)(C)[C@@H]4CC[C@H]3[C@]2(C)C[C@@H]3O[C@@]4(C[C@@H](C)[C@@H]3[C@@]12C)OC[C@@]1(C)O[C@@H]41 [23-epi-26-Deoxyactein] | 0% | 5% | – | – |
| CC(C)CCC[C@@H](C)[C@H]1CC[C@@]2(C)C3=C(CC[C@]12C)[C@@]1(C)CC[C@H](O)C(C)(C)[C@@H]1CC3 [24,25-Dihydrolanosterol] | 3% | 4% | – | – |
| C=C(CC[C@@H](C)[C@H]1CC[C@@]2(C)[C@@H]3CC[C@H]4C(C)(C)[C@@H](OC(=O)/C=C/c5ccc(O)c(OC)c5)CC[C@@]45C[C@@]35CC[C@]12C)C(C)C [24-Methylenecycloartanyl ferulate] | – | – | 0 | 11 |
| CC(C)=CCc1c(O)cc2c(c1O)C(=O)C[C@@H](c1ccc(O)cc1)O2 [(2S)‐6‐Prenylnaringenin] | 0% | 0% | – | – |
| COc1cc(O)c(CC=C(C)C)c2c1C(=O)C[C@@H](c1ccc(O)cc1)O2 [(2S)‐Isoxanthohumol] | 0% | 2% | – | – |
| CC(C)=CCC[C@@](C)(O)[C@H]1CC[C@]2(C)[C@@H]1[C@H](O)C[C@@H]1[C@@]3(C)CC[C@H](O[C@@H]4O[C@H](CO)[C@@H](O)[C@H](O)[C@H]4O[C@@H]4O[C@H](CO)[C@@H](O)[C@H](O)[C@H]4O)C(C)(C)[C@@H]3CC[C@]12C [(20R)-Ginsenoside Rg3] | 22% | 15% | – | – |
| CC(C)=CCC[C@@](C)(O)[C@H]1CC[C@]2(C)[C@@H]1[C@H](O)C[C@@H]1[C@@]3(C)CC[C@H](O)C(C)(C)[C@@H]3[C@@H](O[C@@H]3O[C@H](CO)[C@@H](O)[C@H](O)[C@H]3O)C[C@]12C [(20R)-Ginsenoside Rh1] | 13% | 5% | – | – |
| CC(C)=CCC[C@@](C)(O)[C@H]1CC[C@]2(C)[C@@H]1[C@H](O)C[C@@H]1[C@@]3(C)CC[C@H](O)C(C)(C)[C@@H]3CC[C@]12C [(20R)-Protopanaxadiol] | 0% | 43% | – | – |
| CC(C)=CCC[C@](C)(O)[C@H]1CC[C@]2(C)[C@@H]1[C@H](O)C[C@@H]1[C@@]3(C)CC[C@H](O)C(C)(C)[C@@H]3CC[C@]12C [(20S)-Protopanaxadiol] | 21% | 10% | – | – |
| CC(C)=CCC[C@](C)(O)[C@H]1CC[C@]2(C)[C@@H]1[C@H](O)C[C@@H]1[C@@]3(C)CC[C@H](O)C(C)(C)[C@@H]3[C@@H](O)C[C@]12C [(20S)-Protopanaxatriol] | 31% | 32% | – | – |
| CC12CCC(CC1=O)C2(C)C (stereo not drawn) [(+)-Camphor] | 2% and 0% | 5% and 0% | – | – |
| C=C1[C@H]2CC[C@@H]3[C@H]2C(C)(C)CCC[C@]13C [(+)-Longifolene] | 3% | 1% | – | – |
| CC12CCC(CC1=O)C2(C)C (stereo not drawn) [(+)‐Camphor] | 31% | 1% | – | – |
| Oc1cc(O)c2c(c1)O[C@H](c1cc(O)c(O)c(O)c1)[C@@H](O)C2 [(+)‐Gallocatechin] | 0% | 12% | – | – |
| COC1=CC(=O)OC(/C=C/c2ccccc2)C1 (stereo not drawn) [(+)‐Kavain] | 38% | 14% | – | – |
| COc1ccc2c(c1O)-c1c(O)c(OC)cc3c1[C@H](C2)[N+](C)(C)CC3.[Cl-] [(+)‐Magnoflorine (chloride)] | 0% | 0% | – | – |
| COc1ccc2c(c1O)-c1c(O)c(OC)cc3c1[C@H](C2)[N+](C)(C)CC3.[I-] [(+)‐Magnoflorine (iodide)] | 10% | 8% | – | – |
| CC1=CC[C@@]23C[C@@H]1C(C)(C)[C@@H]2CC[C@H]3C [(-)-Cedrene] | 0% | 17% | – | – |

| Structure (SMILES) | Percentage of motility inhibition 0 h [1] | Percentage of motility inhibition 24 h [2] | Percentage of motility inhibition 0 h (110 µM) [%] | Percentage of motility inhibition 24 h (110 µM) [%] |
| --- | --- | --- | --- | --- |
| Oc1ccc2c(c1)OC[C@H]1c3cc4c(cc3O[C@@H]21)OCO4 [(-)-Maackiain] | 26% | 26% | – | – |
| O=C1C=C2C=C[C@@H]3C[C@@]2(O1)[C@H]1CCCCN31 [(-)-Securinine] | – | 5% | – | – |
| CC1=CCC2CC1C2(C)C (stereo not drawn) [(-)-α-Pinene] | 0% | 6% | – | – |
| CC1=CC[C@@H](C(C)(C)O)CC1 [(-)-α-Terpineol] | 15% | 17% | – | – |
| C=CC(=C)CC/C=C(\C)CCC=C(C)C [(E)-β-Farnesene] | 0% | 11% | – | – |
| COc1cc(O)cc(O)c1C(=O)/C=C/c1ccccc1 [(E)‐Cardamonin] | 13% | 8% | – | – |
| COc1ccc(/C=C/C(=O)c2c(O)cc(OC)cc2OC)cc1 [(E)‐Flavokawain A] | 33% | 11% | – | – |
| CC(C)=CCC[C@@H](C)CCO [(R)-Citronellol] | 1% | 14% | – | – |
| COc1ccc2cc1Oc1ccc(cc1)C[C@H]1c3cc(c(OC)cc3CCN1C)Oc1c(O)c(OC)cc3c1[C@H](C2)N(C)CC3 [(R)‐Fangchinoline] | 44% | 1% | – | – |
| CC(C)=CCC[C@H](C)CC=O [(S)-(-)-Citronellal] | 18% | 61% | – | – |
| C=C(C)[C@@H]1CC=C(CO)CC1 [(S)-(−)-Perillyl alcohol] | 36% | 35% | – | – |
| Cn1nnc(-c2ccc(-c3ccc(N4C[C@@H](CO)OC4=O)cc3F)cn2)n1 [(S)‐Tedizolid] | 26% | 5% | – | – |
| O=C(O[C@H]1Cc2c(O)cc(O)cc2O[C@@H]1c1ccc(O)c(O)c1)c1cc(O)c(O)c(O)c1 [(‐)‐Catechin gallate] | 3% | 0% | – | – |
| COc1cc2c(cc1OC)[C@@H]1Cc3ccc(OC)c(OC)c3C[N@@+]1([O-])CC2 [(‐)‐Corynoxidine] | 19% | 10% | – | – |
| Oc1ccc([C@H]2Oc3cc(O)cc(O)c3C[C@H]2O)cc1 [(‐)‐Epiafzelechin] | 13% | 42% | – | – |
| O=C(O[C@@H]1Cc2c(O)cc(O)cc2O[C@@H]1c1cc(O)c(O)c(O)c1)c1cc(O)c(O)c(O)c1 [(‐)‐Epigalloca techin Gallate] | 9% | 6% | – | – |
| COc1cc2c(cc1O)[C@@H]1Cc3ccc(OC)c(OC)c3CN1CC2 [(‐)‐Isocorypalmine] | 0% | 0% | – | – |
| Cn1cc[n+](C[C@@]2(C)[C@H](C(=O)[O-])N3C(=O)C[C@H]3S2(=O)=O)n1 [AAI101] | 27% | 0% | – | – |
| NC(=O)c1ncn([C@@H]2O[C@H](CO)[C@@H](O)[C@H]2O)c1N.O=P(O)(O)O [AICAR (phosphate)] | 20% | 6% | – | – |
| CC(=O)O[C@@H]1CC[C@@]2(C)[C@@H](CC[C@]3(C)[C@@H]2C(=O)C=C2[C@@H]4[C@@H](C)[C@H](C)CC[C@]4(C)CC[C@]23C)[C@@]1(C)C(=O)O [AKBA] | 0% | 6% | – | – |
| Nc1nc(NC2CC2)c2ncn([C@H]3C=C[C@@H](CO)C3)c2n1.Nc1nc(NC2CC2)c2ncn([C@H]3C=C[C@@H](CO)C3)c2n1.O=S(=O)(O)O [Abacavir (sulfate)] | 29% | 2% | – | – |
| CC(=O)OC[C@H]1O[C@@H](OC[C@H]2O[C@@H](OC(=O)[C@]34CCC(C)(C)C[C@H]3C3=CC[C@@H]5[C@@]6(C)CC[C@H](O[C@@H]7OC[C@H](O)[C@H](O)[C@H]7O[C@@H]7O[C@H](CO)[C@@H](O)[C@H](O)[C@H]7O)C(C)(C)[C@@H]6CC[C@@]5(C)[C@]3(C)CC4)[C@H](O)[C@@H](O)[C@@H]2O)[C@H](O)[C@@H](O)[C@@H]1O[C@@H]1O[C@@H](C)[C@H](O)[C@@H](O)[C@H]1O [Acanthopanaxoside B] | 0% | 0% | – | – |
